ChEMBL document CHEMBL4651402, “Screening of ~5500 FDA-approved drugs and clinical candidates for anti-SARS-CoV-2 activity” (2021)

Tested on: SARS-CoV-2
Test: microbe, parasite or virus in culture
Conditions: Severe acute respiratory syndrome coronavirus 2, Vero C1008, 48 h

Row | Structure (SMILES) | IC50 [µM] | IC50 (read-out: pIC50 (converted)) [µM]
1 | CC(=O)Nc1cccc(O)c1 [METACETAMOL] | > 20 | > 20
2 | O=C1c2ccccc2S(=O)(=O)N1CCCCN1CCN(c2ncccn2)CC1 [IPSAPIRONE] | > 20 | > 20
3 | C[C@]12C[C@H](O)[C@H]3[C@@H](CCC4=CC(=O)CC[C@@]43C)[C@@H]1CC[C@@H]2C(=O)CO [CORTICOSTERONE] | > 20 | > 20
4 | O=C(c1ccc(F)cc1)C1CCN(CCn2c(=S)[nH]c3ccccc3c2=O)CC1 [ALTANSERIN] | > 20 | > 20
5 | CCOC(=O)OC(C)OC1=C(C(=O)Nc2ccccn2)N(C)S(=O)(=O)c2ccccc21 (stereo not given) [AMPIROXICAM] | > 20 | > 20
6 | CCNC(=O)N1CCN(CCCC(c2ccc(F)cc2)c2ccc(F)cc2)CC1 [AMPEROZIDE] | > 20 | > 20
7 | CC(C)(O/N=C(/C(=O)NC1C(=O)N2C(C(=O)O)=C(C[n+]3ccccc3)CSC12)c1csc(N)n1)C(=O)O (stereo not given) | > 20 | > 20
8 | CC(O)CO (stereo not given) [PROPYLENE GLYCOL] | > 20 | > 20
9 | CC(=O)OCC(=O)[C@@]1(O)[C@H](C)CC2C3CCC4=CC(=O)C=CC4(C)[C@@]3(F)C(O)CC21C (stereo not given in full) | > 20 | > 20
10 | CCCN1CCC[C@@H](c2cccc(S(C)(=O)=O)c2)C1 | > 20 | > 20
11 | O=C1C(Cl)=C(Cl)C(=O)c2c(O)ccc(O)c21 | > 20 | > 20
12 | O=c1[nH]c2cc(Cl)ccc2n1C1CCN(CCCC(c2ccc(F)cc2)c2ccc(F)cc2)CC1 [CLOPIMOZIDE] | > 20 | > 20
13 | CC1CC2=CC(=O)CCC2C2CCC3(C)C(CCC3(C)O)C12 (stereo not given) | > 20 | > 20
14 | CC[C@@H](C(N)=O)N1CCCC1=O | > 20 | > 20
15 | N=c1ccn2c(n1)O[C@H]1[C@H](O)[C@@H](CO)O[C@H]12 [ANCITABINE] | > 20 | > 20
16 | CC(C)NCC(O)c1ccccc1Cl (stereo not given) [CLORPRENALINE] | > 20 | > 20
17 | NC(=O)c1[nH]cnc1O | > 20 | > 20
18 | NC(=O)c1ncn([C@@H]2O[C@H](CO)[C@@H](O)[C@H]2O)n1 [RIBAVIRIN] | > 50.1 | > 50.1
19 | Nc1ncnc2c1ncn2[C@@H]1O[C@H](COP(=O)(O)OP(=O)(O)OP(=O)(O)O)[C@@H](O)[C@H]1O [ADENOSINE TRIPHOSPHATE] | > 20 | > 20
20 | CCN1CCCC(OC(=O)C(c2ccccc2)c2ccccc2)C1 (stereo not given) [PIPERIDOLATE] | > 20 | > 20
21 | N#CC(CCN1CCC(C(=O)O)(c2ccccc2)CC1)(c1ccccc1)c1ccccc1 [DIFENOXIN] | > 20 | > 20
22 | NC(=O)OCCCc1ccccc1 [PHENPROBAMATE] | > 20 | > 20
23 | CC(=O)Oc1ccc(C(=C2CCCCC2)c2ccc(OC(C)=O)cc2)cc1 [CYCLOFENIL] | > 20 | > 20
24 | O=C(O)Cc1ccccc1 [PHENYLACETIC ACID] | > 20 | > 20
25 | CN1[C@@H]2C[C@@H](OC(=O)[C@@](O)(CO)c3ccccc3)C[C@H]1[C@@H]1O[C@@H]12 | > 20 | > 20
26 | CN1C(=O)CC(c2ccccc2)C1=O (stereo not given) [PHENSUXIMIDE] | > 20 | > 20
27 | O=c1cc(-c2ccccc2)oc2cc(O)cc(O)c12 [CHRYSIN] | > 20 | > 20
28 | COc1c(O[C@@H]2O[C@H](CO)[C@@H](O)[C@H](O)[C@H]2O)cc2c(c1OC)-c1ccc(SC)c(=O)cc1[C@@H](NC(C)=O)CC2 [THIOCOLCHICOSIDE] | > 20 | > 20

Row | Structure (SMILES) | IC50 [µM] | IC50 (read-out: pIC50 (converted)) [µM]
29 | C[C@H]1[C@H](OC(=O)CCC(=O)O)O[C@@H]2O[C@@]3(C)CC[C@H]4[C@H](C)CC[C@@H]1[C@@]24OO3 [ARTESUNATE] | > 20 | > 20
30 | O=P(O)(O)C(O)(Cc1cccnc1)P(=O)(O)O [RISEDRONIC ACID] | > 20 | > 20
31 | CC(C)c1cccc(C(C)C)c1O [PROPOFOL] | > 20 | > 20
32 | NC(=S)N/N=C/c1ccncc1 | > 20 | > 20
33 | COc1ccc2c(c1)c(CC(=O)OCC(=O)O)c(C)n2C(=O)c1ccc(Cl)cc1 [ACEMETACIN] | > 20 | > 20
34 | O=C(O)CCC(=O)O [SUCCINIC ACID] | > 20 | > 20
35 | CC(C)(C)CC(C)(C)c1ccc(OCOCCOCCO)c(Cc2cc(C(C)(C)CC(C)(C)C)cc(Cc3cc(C(C)(C)CC(C)(C)C)ccc3OCOCCOCCO)c2OCOCCOCCO)c1 | > 20 | > 20
36 | O=C1Nc2ccccc2/C1=C1/Nc2ccccc2C1=O [INDIRUBIN] | > 20 | > 20
37 | CCCCCCCOC(=O)NC1=NC(=O)N([C@H]2C[C@H](O)[C@@H](CO)O2)CN1 [KP-1461] | > 20 | > 20
38 | CC(=O)N[C@@H]1[C@@H](O)[C@@H](O)[C@@H](CO)O[C@@H]1O | > 20 | > 20
39 | CN(C)C/C=C/C(=O)Nc1cc2c(Nc3ccc(F)c(Cl)c3)ncnc2cc1O[C@H]1CCOC1 [AFATINIB] | > 20 | > 20
40 | CC1(C)S[C@@H]2[C@H](NC(=O)[C@H](N)c3ccc(O)cc3)C(=O)N2[C@H]1C(=O)O [AMOXICILLIN] | > 20 | > 20
41 | OC(c1ccccc1)(c1ccccc1)C1CN2CCC1CC2 (stereo not given) [QUIFENADINE] | > 20 | > 20
42 | C=C(C)C1Cc2c(ccc3c2OC2COc4cc(OC)c(OC)cc4C2C3=O)O1 (stereo not given) | > 20 | > 20
43 | OCCN1CCCCC1C(c1ccccc1)c1ccccc1 (stereo not given) [DIFEMETOREX] | > 20 | > 20
44 | CC(N)(Cc1ccc(O)c(O)c1)C(=O)O (stereo not drawn) [METHYLDOPA (RACEMIC)] | > 20 | > 20
45 | C[C@@H](C(=O)O)c1ccc(-c2ccccc2)c(F)c1 [TARENFLURBIL] | > 20 | > 20
46 | CC(C)NCC(O)COc1ccc(COCCOC(C)C)cc1 (stereo not given) [BISOPROLOL] | > 20 | > 20
47 | CC(C)CN(C[C@@H](O)[C@H](Cc1ccccc1)NC(=O)[C@H](CC(N)=O)NC(=O)c1ccc2ccccc2n1)C(=O)NC(C)(C)C | > 20 | > 20
48 | CCN(CC)CCOC(c1ccccc1)c1ccccc1 | > 20 | > 20
49 | O=C(O)c1cccc(-c2cccc(NCCNC[C@H](O)c3cccc(Cl)c3)c2)c1 [SOLABEGRON] | > 20 | > 20
50 | CCOC(=O)O[C@]1(C(=O)COC(=O)CC)CC[C@H]2[C@@H]3CCC4=CC(=O)C=C[C@]4(C)[C@H]3[C@@H](O)C[C@@]21C [PREDNICARBATE] | > 20 | > 20
51 | O=C(O)CCCc1ccc(N(CCCl)CCCl)cc1 [CHLORAMBUCIL] | > 20 | > 20
52 | Nc1ncn([C@H]2C[C@H](O)[C@@H](CO)O2)c(=O)n1 [DECITABINE] | > 20 | > 20
53 | Nc1ccc(F)cc1NC(=O)c1ccc(CNC(=O)/C=C/c2cccnc2)cc1 | > 20 | > 20
54 | Cc1[nH]cnc1C[C@H]1CCc2c(C)c3ccccc3n2C1=O [FABESETRON] | > 20 | > 20
55 | CC(C)(N)Cc1ccccc1Cl [CLORTERMINE] | > 20 | > 20
